Source: patent US20250313530A1, “SMALL MOLECULE INHIBITORS OF INTERLEUKIN-4 AND USES THEREOF” (Trustees of Boston University, priority 2024, published 2025)
“And” between values parts separate entries of the source, which are not always exact repeats. Equal entries are not always repeated. Where two headings read alike, the source gives them in different places.

Legend:
[1] = target: T1, IL-4 (Homo sapiens, UniProt P05112); assay: HEK-Blue IL-4/IL-13 reporter assay, IL-4 inhibition; format: cell-based; details: for EC50: dose response, IL-4 inhibition
T1 construct: purchased Acros Biosystems IL4-H4218; host or cells: HEK-293
T1 sequence (P05112 25-153): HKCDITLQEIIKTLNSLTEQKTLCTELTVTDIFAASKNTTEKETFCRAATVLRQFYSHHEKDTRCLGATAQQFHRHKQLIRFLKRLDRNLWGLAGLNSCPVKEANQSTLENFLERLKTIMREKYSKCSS
Description: HEK-Blue IL-4/IL-13 Inhibition assay. HEK-Blue IL-4/IL-13 reporter cell lines were purchased from Invivogen and cultured in DMEM with 10% Heat Inactivated Fetal Bovine Serum (FBS), 100 U/ml-100 μg/ml Pen-Strep, 10 μg/ml blasticidin, 100 μg/ml Normocin and 100 μg/ml Zeocin. Cells were tested for secreted embryonic alkaline phosphatase (SEAP) production induced by IL-4 alone prior to small molecule screening.
22.5 μl of small molecule in DMEM 4% DMSO was added to 22.5 μl of 1 ng/ml IL-4 in DMEM in a non-binding 96-well reaction plate for 30 minutes at room temperature. The reaction plate was further incubated for 30-60 min at 37° C. HEK-Blue IL-4/IL-13 reporter cell line was used between passages 11-17. […] Measurements were done in triplicate. The plate was incubated for ˜22-24 hours at 37° C./5% CO2. Quanti-Blue dye was prepared as per the manufacturer's recommendation and 160 μl was dispensed in each well of a 96-well plate (avoid edges to avoid evaporation), 40 μl of cell supernatant was added to the same plate and incubated for 3 hours at 37° C./5% CO2. Optical density was then measured at 650 nm using Molecular Devices SpectraMax M5 Microplate reader. Data was analyzed and plotted using GraphPad Prism 9.2.0.

[2] = system: IL-4 induced pSTAT-6 in THP-1 cells; assay: THP-1 pSTAT-6 immunofluorescence
Description: IL-4 and analogs or vehicle (DMEM with 2% DMSO) were preincubated for 2 hours at 37° C. After the incubation, IL-4 or IL-4/analogs were incubated with THP-1 cells for 30 min at 37° C./5% CO2. Incubated cells were centrifuged for 5 min at 250×g. After aspirating the supernatant, cells were resuspended in 1×PBS and plated into a MatTek dish coated with Cell Tak adhesive for 30 minutes at room temperature. Cells were fixed with 4% Paraformaldehyde for 1 hour at room temperature. Cells were rinsed twice with 1×PBS and then permeabilized with 0.5% Triton-X for 1 hour at room temperature. Cells were rinsed again with 1×PBS, and blocked for an hour in superblock with 0.05% Tween-20, rinsed twice, and then incubated with anti-pSTAT-6 1:100 diluted in superblock 0.05% Tween-20 overnight at 4° C. (parafilmed to avoid evaporation). Cells were rinsed thrice with 1×PBS and then incubated with Mouse anti-rabbit IgG(H+L) Secondary Antibody-Alexa Fluor 647 for 1 hour at room temperature in the dark. […] Cells were rinsed twice with 1×PBS and left in 1 ml of 1×PBS. Confocal Imaging was done using an Olympus FV10i and images were processed using FIJI.

N#Cc1c(-c2ccc(O)c(O)c2)cc(-c2ccccc2)[nH]c1=N [Compound 15, 4-(3,4-dihydroxyphenyl)-2-imino-6-phenyl-1,2-dihydropyridine-3-carbonitrile]
inhibition at 10 µM ([1]; HEK-Blue, 10 μM, IL-4, HEK Blue IL-4/IL-13 reporter assay): 95.5%
EC50 ([1]; HEK Blue IL-4/IL-13 reporter assay, read-out: EC50): 850 nM and 550 nM
EC50 ([1]; values in text, read-out: potency (EC50 of inhibition)): 552 nM
Hill coefficient ([1]; fit of dose response in HEK Blue IL-4/IL-13 reporter assay): 1.49±0.15
STAT-6 phosphorylation by immunofluorescence ([2]; 50 nM): reduced STAT-6 phosphorylation
STAT-6 phosphorylation by immunofluorescence ([2]; 500 nM): complete inhibition of phosphorylation
